{"source": "patent US20250152586A1", "about": "“PHARMACEUTICAL COMPOSITION FOR RELIEVING OR TREATING PAIN BY REGULATING CEREBELLAR GLIAL CELLS AND METHOD FOR RELIEVING OR TREATING PAIN” (Seoul National University R&DB Foundation, priority 2021, published 2025)", "key": {"[1]": {"test_system": "cerebellar glial cell-specific alpha-1 adrenergic receptors", "test": "Capsaicin-induced pain licking time after knockdown with cerebellar glial cell-specific shRNA", "assay_type": "in vivo", "details": "Cre-dependent shRNA virus in Glast-Cre/ERT mice after tamoxifen, vs control; FIG. 5B", "experimental": "Using non-genetically modified wild-type mice, a specific chemogenetic inhibitory virus which targets cerebellar glial cells and locus coeruleus cells was injected. To specifically remove alpha1-adrenergic receptors from cerebellar glial cells, using Glast-Cre (Tg(Slcla3-Cre/ERT) 1Nat/J), a genetically modified mouse in which Cre is expressed by tamoxifen specifically in only cerebellar glial cells, Cre was expressed by injecting tamoxifen, and then a virus that removes the alpha1-adrenergic receptor in a Cre-dependent manner was injected.\n(§1) To confirm the pain pattern caused by capsaicin, the degree of pain was recorded for a total of 30 minutes, 10 minutes before the injection of capsaicin and 20 minutes after the injection of capsaicin (FIG. 1B).\nAs another approach to prevent the activity of cerebellar glial cells, alpha-1 adrenergic receptors were inhibited using cerebellar glial cell-specific shRNA. To specifically remove alpha1-adrenergic receptors from cerebellar glial cells, using Glast-Cre (Tg(Slcla3-Cre/ERT) 1Nat/J), a genetically modified mouse in which Cre is expressed by tamoxifen specifically in only cerebellar glial cells, Cre was expressed by injecting tamoxifen, and then a virus that removes the alpha1-adrenergic receptor in a Cre-dependent manner was injected. Glast-cre (Tg(Slcla3-cre/ERT) 1 Nat/J) mice were purchased from Jackson Labs, USA. […]"}, "GABAA receptor": {"test_system": "GABAA receptor", "test": "Capsaicin-induced pain licking time after local injection of muscimol into the deep cerebellar nuclei", "assay_type": "in vivo, mice", "details": "muscimol 100 μM, 0.5 μl, local into deep cerebellar nuclei (DCN) via cannula, 10 minutes after, vs control; FIG. 6B", "experimental": "(§2) 1-2. Drug Injection For chemogenetic inhibition of cerebellar glial cells, CNO was injected intraperitoneally at a dose of 5 to 10 mg/kg. For chemogenetic inhibition of locus coeruleus cells, 0.5 μl of 1 mM C21 was directly injected into the cerebellar cortex through a cannula installed in cerebellar vermis lobule IV/V. Prazosin (100 μM, 0.5 μl) and muscimol (100 μM, 0.5 μl), which are alpha-1 adrenergic receptor inhibitors or GABAA agonists, were injected through cannulas targeting the cerebellar cortex and cerebellar nuclei, respectively.\nas §1\nInformation processed in the cerebellar cortex converges to the cerebellar nuclei. To investigate the pain pattern induced by capsaicin when the cerebellar nuclei, the target of cerebellar output, were inhibited, the deep cerebellar nuclei (DCN) region was locally administered muscimol (100 μM, 0.5 μl), an inhibitory neurotransmitter GABAA receptor agonist, through a cannula. The licking time was measured 10 minutes after the injection when the effect of muscimol appeared (FIG. 6A)."}, "[2]": {"test": "Basic motor function, ledge test and gait test", "assay_type": "in vivo, mice", "details": "vs control", "experimental": "To confirm whether basic behavioral patterns were affected when the activity of cerebellar glial cells was regulated, basic movements were measured by placing the mice in a chamber measuring 40 cm in length and width (FIG. 1D).\nA ledge test was first performed to measure motor coordination. […] A score closer to 3 was determined to be normal, and a score closer to 0 was determined to be abnormal motor coordination. (FIG. 1E, ledge test).\nA gait test was secondly performed to measure motor coordination. An experimenter measured the mouse's walking pattern without being observed. […] A score closer to 3 was determined to be normal, and a score closer to 0 was determined to be abnormal motor coordination (FIG. 1E, gait test)."}, "[3]": {"test_system": "alpha-1 adrenergic receptors in cerebellar glial cells", "test": "Capsaicin-induced pain licking time after local injection of prazosin into the cerebellum", "assay_type": "in vivo, mice", "details": "prazosin 100 μM, 0.5 μl, local into cerebellum (vermis lobule IV/V) via cannula, about 10 minutes after, vs control; FIG. 4B", "experimental": "as §2, §1\nAlpha-1 adrenergic receptors in cerebellar glial cells are activated by norepinephrine. To inhibit this, prazosin (100 μM, 0.5 μl), an alpha-1 adrenergic receptor antagonist, was locally injected only into the cerebellum (vermis lobule IV/V) via a cannula. Thereafter, behavioral experiments were performed about 10 minutes after the alpha-1 adrenergic receptors were inhibited (FIG. 4A)."}, "[4]": {"target": "T1, hM4D (Gi) expressed in locus coeruleus cells (Homo sapiens, UniProt P08173, A203G/Y113C)", "T1 construct": "expressed in transfected cells; host or cells: mouse locus coeruleus cells, transduced in vivo by virus; agonist C21 applied at their axon terminals in the cerebellar cortex", "T1 sequence (P08173 1-479 Y113C/A203G)": "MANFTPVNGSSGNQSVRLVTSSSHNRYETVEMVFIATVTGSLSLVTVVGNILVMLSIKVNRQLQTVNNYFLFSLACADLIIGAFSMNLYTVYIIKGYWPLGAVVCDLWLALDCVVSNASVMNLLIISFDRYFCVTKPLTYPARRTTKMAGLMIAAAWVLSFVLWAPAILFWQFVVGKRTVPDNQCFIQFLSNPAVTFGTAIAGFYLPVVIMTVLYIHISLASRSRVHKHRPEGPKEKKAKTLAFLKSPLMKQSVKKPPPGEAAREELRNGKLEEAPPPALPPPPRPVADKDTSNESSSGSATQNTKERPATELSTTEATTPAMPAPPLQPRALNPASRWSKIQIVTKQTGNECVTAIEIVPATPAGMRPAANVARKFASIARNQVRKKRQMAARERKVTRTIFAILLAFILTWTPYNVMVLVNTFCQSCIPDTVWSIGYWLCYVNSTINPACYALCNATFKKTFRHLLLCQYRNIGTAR", "test": "Capsaicin-induced pain licking time with chemogenetic inhibition of the axon terminals of locus coeruleus cells in the cerebellum (hM4D (Gi) activated by C21)", "assay_type": "in vivo, mice", "details": "0.5 μl of 1 mM C21 into cerebellar cortex via cannula (vermis lobule IV/V), hM4D (Gi) in LC, about 10 minutes after, vs control; FIG. 3B", "experimental": "as §2, §1\nUsing non-genetically modified wild-type mice, a specific chemogenetic inhibitory virus which targets locus coeruleus cells was injected. […] Further, in this case, to confirm that the inhibition of the axon terminals of the locus coeruleus only affected the pain pattern, basic motor function was measured using the ledge test and gait test described above in Example 1-3. […]"}, "[5]": {"target": "T2, hM4D (Gi) expressed in cerebellar glial cells (vermis lobule IV/V) (Homo sapiens, UniProt P08173, A203G/Y113C)", "T2 construct": "expressed in transfected cells; host or cells: mouse cerebellar glial cells (vermis lobule IV/V), transduced in vivo by virus", "T2 sequence (P08173 1-479 Y113C/A203G)": "T1 sequence (P08173 1-479 Y113C/A203G)", "test": "Capsaicin-induced pain licking time with chemogenetic inhibition of cerebellar glial cells (hM4D (Gi) activated by CNO)", "assay_type": "in vivo, mice", "details": "CNO intraperitoneal 5 to 10 mg/kg, about 1 hour after, vs control, FIG. 2B", "description": "Using non-genetically modified wild-type mice, a specific chemogenetic inhibitory virus which targets cerebellar glial cells was injected. […] Therefore, CNO, an agonist capable of activating the corresponding virus, was injected intraperitoneally at a dose of 5 to 10 mg/kg. Behavioral experiments were performed about 1 hour after glial cells were inhibited (FIG. 2A)."}}, "note": "Counter-ions that a name gives are not always drawn.", "data": [{"compound": "shRNA: Cre-dependent cerebellar glial cell-specific shRNA (534-558) against alpha-1 adrenergic receptor, GAGCCACACTTAGCTAACCATTTCA (guide GAGCCACACUUAGCUAACCAUUUCA)", "values": [{"measurement": "licking time (pain induced by capsaicin)", "setting": "[1]", "result": "significantly reduced"}]}, {"compound": "NCc1cc(=O)[nH]o1", "note": "[muscimol, Muscimol]", "values": [{"measurement": "licking time (pain induced by capsaicin)", "setting": "GABAA receptor", "result": "significantly reduced"}, {"measurement": "basic motor performance (ledge test and gait test)", "setting": "[2]; muscimol 100 μM, 0.5 μl, local into DCN, FIG. 6C", "result": "no significance difference"}]}, {"compound": "COc1cc2nc(N3CCN(C(=O)c4ccco4)CC3)nc(N)c2cc1OC", "note": "[prazosin, Prazosin hydrochloride]", "values": [{"measurement": "licking time (pain induced by capsaicin)", "setting": "[3]", "result": "significantly reduced"}, {"measurement": "basic motor performance (ledge test and gait test)", "setting": "[2]; prazosin 100 μM, 0.5 μl, local into cerebellum, FIG. 4C", "result": "no significance difference"}]}, {"compound": "Cl.Cl.c1ccc2c(c1)N=C(N1CCNCC1)c1ccccc1N2", "note": "[C21, DREADD agonist 21(Compound 21)]", "values": [{"measurement": "licking time (pain induced by capsaicin)", "setting": "[4]", "result": "significantly reduced"}, {"measurement": "basic motor performance (ledge test and gait test)", "setting": "[2]; 0.5 μl of 1 mM C21 into cerebellar cortex, hM4D (Gi) in LC, FIG. 3C", "result": "no significance difference"}]}, {"compound": "C[N+]1([O-])CCN(C2=Nc3cc(Cl)ccc3Nc3ccccc32)CC1.Cl.Cl", "note": "[CNO, Clozapine N-oxide (CNO) dihydrochloride]", "values": [{"measurement": "licking time (pain induced by capsaicin)", "setting": "[5]", "result": "significantly reduced"}]}]}
